From ChEMBL document CHEMBL1201862, “PubChem BioAssay data set” (2004)
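Interpolation was linear, between the two tested concentrations surrounding the appropriate level; five concentrations were tested over 48 hours in 96-well plates. The concentration for 50% growth inhibition is given as GI50.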 Active and inactive are the calls of the source. Rule as the data show it: active = GI50 up to about 1.1 µM and inactive = higher.

Experiments:
Experiment in all cases: DTP human tumour cell line panel, 48 h
[1] = system: UACC-62
[2] = system: SF-295
[3] = system: SK-MEL-28
[4] = system: HT-29
[5] = system: BT-549
[6] = system: RPMI-8226
[7] = system: Malme-3M
[8] = system: CCRF-CEM
[9] = system: MDA-N
[10] = system: NCI-H522
[11] = system: LOX IMVI
[12] = system: OVCAR-5
[13] = system: IGROV-1
[14] = system: SW-620
[15] = system: Hs-578T
[16] = system: SK-MEL-5
[17] = system: RXF 393
[18] = system: SF-268
[19] = system: A498

SMILES | GI50 [1] | GI50 [2] | GI50 [3] | GI50 [4] | GI50 [5] | GI50 [6] | GI50 [7] | GI50 [8] | GI50 [9] | GI50 [10] | GI50 [11] | GI50 [12] | GI50 [13] | GI50 [14] | GI50 [15] | GI50 [16] | GI50 [17] | GI50 [18] | GI50 [19]
O=C1c2ccccc2-c2nc(-c3ccncc3)cc3c2c1nc1ccccc13 | 13.4 µM (inactive) | 11.3 µM (inactive) | 32.3 µM (inactive) | 24.9 µM (inactive) | 40.1 µM (inactive) | 11.4 µM (inactive) | 4.27 µM (inactive) | 9.33 µM (inactive) | 17.4 µM (inactive) | 10.7 µM (inactive) | 14.5 µM (inactive) | 18.7 µM (inactive) | 1.07 µM (active) | 24.3 µM (inactive) | – | – | – | – | –
C=CCNC(=O)NC(=O)CSC1=NC(=O)C2(NN1)c1ccccc1-c1ccccc12 | > 10 µM (inactive) | > 10 µM (inactive) | > 10 µM (inactive) | > 10 µM (inactive) | > 10 µM (inactive) | > 10 µM (inactive) | > 10 µM (inactive) | > 10 µM (inactive) | > 10 µM (inactive) | > 10 µM (inactive) | > 10 µM (inactive) | > 10 µM (inactive) | > 10 µM (inactive) | > 10 µM (inactive) | 9.51 µM (inactive) | > 10 µM (inactive) | > 10 µM (inactive) | > 10 µM (inactive) | –
O=c1c2cc([N+](=O)[O-])cnc2sn1-c1ccc(Br)cc1 | 82.4 µM (inactive) | 17.5 µM (inactive) | > 100 µM (inactive) | 27.2 µM (inactive) | 91.4 µM (inactive) | 26.6 µM (inactive) | 19.1 µM (inactive) | 22.9 µM (inactive) | > 100 µM (inactive) | 5.5 µM (inactive) | 19.3 µM (inactive) | 38.4 µM (inactive) | 81.7 µM (inactive) | 28.3 µM (inactive) | 23.7 µM (inactive) | > 100 µM (inactive) | – | 27.5 µM (inactive) | –
CCC/C(C)=N/NC(=S)SC.CCC/C(C)=N/NC(=S)SC.[Zn+2] | 10.9 µM (inactive) | 3.15 µM (inactive) | 16 µM (inactive) | 3.07 µM (inactive) | 10.6 µM (inactive) | 1.98 µM (inactive) | 2.9 µM (inactive) | 2.16 µM (inactive) | – | 11.3 µM (inactive) | 1.48 µM (inactive) | 10.3 µM (inactive) | 2.56 µM (inactive) | 9.44 µM (inactive) | 15.7 µM (inactive) | 11.2 µM (inactive) | 17.1 µM (inactive) | 14.1 µM (inactive) | 22.2 µM (inactive)
Cc1cccc(-c2nc(-c3cnccn3)n(Cc3ccccc3)n2)c1 | 70.8 µM (inactive) | 50.8 µM (inactive) | 68.5 µM (inactive) | > 100 µM (inactive) | > 100 µM (inactive) | > 100 µM (inactive) | – | > 100 µM (inactive) | > 100 µM (inactive) | > 100 µM (inactive) | > 100 µM (inactive) | > 100 µM (inactive) | > 100 µM (inactive) | > 100 µM (inactive) | – | > 100 µM (inactive) | 29.6 µM (inactive) | > 100 µM (inactive) | –
Cn1cc(S(=O)(=O)NC(=O)Nc2ccc(Cl)cc2)c(=O)c2ccc(Cl)cc21 | 20.9 µM (inactive) | > 100 µM (inactive) | > 100 µM (inactive) | > 100 µM (inactive) | 43.8 µM (inactive) | – | > 100 µM (inactive) | 92.9 µM (inactive) | > 100 µM (inactive) | 20.9 µM (inactive) | > 100 µM (inactive) | > 100 µM (inactive) | > 100 µM (inactive) | > 100 µM (inactive) | 72.1 µM (inactive) | > 100 µM (inactive) | > 100 µM (inactive) | > 100 µM (inactive) | –
O=[N+]([O-])/C(C(Cl)=C(Cl)Cl)=C(\N1CCCCC1)n1cncn1 | 15.2 µM (inactive) | 17.1 µM (inactive) | 16.3 µM (inactive) | 17.7 µM (inactive) | 17.5 µM (inactive) | 19.1 µM (inactive) | 15.9 µM (inactive) | 3.79 µM (inactive) | 14.4 µM (inactive) | 15.6 µM (inactive) | 15.1 µM (inactive) | 16.2 µM (inactive) | 9.08 µM (inactive) | 15.8 µM (inactive) | – | 12.6 µM (inactive) | 6.64 µM (inactive) | 12.9 µM (inactive) | 15.8 µM (inactive)
Cc1ccc(/C=C2\NC(=S)NC2=O)cc1 | > 100 µM (inactive) | > 100 µM (inactive) | > 100 µM (inactive) | > 100 µM (inactive) | > 100 µM (inactive) | > 100 µM (inactive) | > 100 µM (inactive) | > 100 µM (inactive) | > 100 µM (inactive) | > 100 µM (inactive) | 40.3 µM (inactive) | > 100 µM (inactive) | > 100 µM (inactive) | > 100 µM (inactive) | > 100 µM (inactive) | > 100 µM (inactive) | > 100 µM (inactive) | > 100 µM (inactive) | –
C=C1c2nc3ccccc3n2C=C(c2ccc(Cl)cc2)N1c1ccccc1 | 18.3 µM (inactive) | 11.7 µM (inactive) | 11.7 µM (inactive) | – | 6.64 µM (inactive) | 28 µM (inactive) | 12.1 µM (inactive) | > 100 µM (inactive) | 33.1 µM (inactive) | 4 µM (inactive) | 33.7 µM (inactive) | 26.5 µM (inactive) | 7.73 µM (inactive) | 25.3 µM (inactive) | – | 16.1 µM (inactive) | 16.1 µM (inactive) | – | 37.2 µM (inactive)
CC(C)(C)n1nc(C2CC2)cc1NC(=O)Nc1ccc(Cl)cc1 | > 100 µM (inactive) | > 100 µM (inactive) | > 100 µM (inactive) | > 100 µM (inactive) | > 100 µM (inactive) | > 100 µM (inactive) | > 100 µM (inactive) | – | – | > 100 µM (inactive) | > 100 µM (inactive) | > 100 µM (inactive) | > 100 µM (inactive) | > 100 µM (inactive) | > 100 µM (inactive) | > 100 µM (inactive) | > 100 µM (inactive) | > 100 µM (inactive) | > 100 µM (inactive)
CC(=O)N1CCN(C23OC4(N5CCN(C(C)=O)CC5)C5C6CC(C7C6C4C72)C53)CC1 (stereo not drawn) | > 100 µM (inactive) | > 100 µM (inactive) | – | > 100 µM (inactive) | > 100 µM (inactive) | > 100 µM (inactive) | > 100 µM (inactive) | > 100 µM (inactive) | > 100 µM (inactive) | > 100 µM (inactive) | > 100 µM (inactive) | > 100 µM (inactive) | > 100 µM (inactive) | > 100 µM (inactive) | > 100 µM (inactive) | > 100 µM (inactive) | > 100 µM (inactive) | > 100 µM (inactive) | –
CC(=O)Nc1ccc(COC(O)CN2CCCCC2)cc1[N+](=O)[O-] (stereo not drawn) | > 100 µM (inactive) | > 100 µM (inactive) | > 100 µM (inactive) | > 100 µM (inactive) | > 100 µM (inactive) | > 100 µM (inactive) | > 100 µM (inactive) | > 100 µM (inactive) | > 100 µM (inactive) | > 100 µM (inactive) | – | > 100 µM (inactive) | > 100 µM (inactive) | > 100 µM (inactive) | – | > 100 µM (inactive) | > 100 µM (inactive) | > 100 µM (inactive) | > 100 µM (inactive)
